“And” between values parts separate entries of the source, which are not always exact repeats. Identical values can stand only once.
Assays:
Format in all cases: in vivo
Rice = test: Greenhouse safening test: % plant inhibition of rice by herbicide with and without safener; conditions: approx. 21 days; for % Plant Inhibition, Rice (herbicide alone): right-hand figure; for % Plant Inhibition, Rice (herbicide plus safener): left-hand figure
Method: (§1) Seed plantings and the sequential application of the herbicide and safening agents are accomplished in the following manner:
(§2) A fumigated silt loam to top soil is placed in a container and compacted to a depth of approximately 1.27 cm. from the top of said container. A predetermined number of seeds of each of the crop species to be tested are placed on top of the soil. A quantity of soil sufficient to substantially fill the container is measured and placed in a second container. A measured quantity of the herbicide dispersed or dissolved in a suitable carrier is applied to the soil in the second container. A measured quantity of the safening agent dispersed or dissolved in a suitable carrier is thereafter sprayed on the soil already treated with the […]. The soil containing the safening agent and/or herbicide is thoroughly mixed. This mixing is sometimes referred to as incorporation of the herbicide and safening agent into the soil. The mixing or incorporation provides a substantially uniform distribution of the safening agent and herbicide throughout the soil. The seeds are covered with the soil containing the safening agent and/or herbicide or with untreated soil, and the pots are leveled. The pots are then placed on a sand bench in a greenhouse and watered from below as needed. When the seeds are treated with safener, the application of the safener to the soil is omitted. The coated seeds are placed on top of the soil in the pot and the balance of the treatment procedure is the same. The plants are observed at the end of approximately 21 days and the results in terms of percent inhibition of growth are recorded.
(§3) For each test series, a pot is also prepared containing no herbicide and no safening agent as a control. For each treatment, the herbicidal activity is observed on pots treated with the same quantity of herbicide alone. The results are observed and recorded as percent inhibition of each plant species tested. The tank mixes of know herbicides, safeners or combinations thereof were prepared by dissolving the appropriate amount of active ingredient in acetone. In Table 2 the results of testing the compounds of the present invention have been set forth. The rates of herbicide application are given in kilograms per hectare. In each treatment the amount of safener employed was 9.0 kilograms per hectare. In the % Plant Inhibition section of Table 2 under the listed crop columns the data are the inhibitions for herbicide plus safener on the left side and for the herbicide alone on the right side. The known herbicides are identified as follows. Throughout the examples, the herbicides are individually identified by reference numbers H-1 and H-2.

Sorghum = test: Greenhouse safening test: % plant inhibition of sorghum by herbicide with and without safener; conditions: approx. 21 days; for % Plant Inhibition, Sorghum (herbicide plus safener): H-1 (alachlor) 2.2 kg/ha plus safener 9.0 kg/ha, left-hand figure
Method: as §1, §2, §3

Wheat = test: Greenhouse safening test: % plant inhibition of wheat by herbicide with and without safener; conditions: approx. 21 days; for % Plant Inhibition, Wheat (herbicide plus safener): H-1 (alachlor) 2.2 kg/ha plus safener 9.0 kg/ha, left-hand figure
Method: as §1, §2, §3

[1] = H-1 (alachlor) 2.2 kg/ha alone, right-hand figure
[2] = H-2 (butachlor) 4.5 kg/ha plus safener 9.0 kg/ha

Row | SMILES | % Plant Inhibition, Sorghum (herbicide plus safener) (Sorghum) | % Plant Inhibition, Rice (herbicide plus safener) (Rice; [2]) | % Plant Inhibition, Wheat (herbicide plus safener) (Wheat) | further results
1 | CCCCOCN(C(=O)CCl)c1c(CC)cccc1CC [Compound H-2, 2-chloro-2',6'-diethyl-N-(butoxymethyl) acetanilide, reference compound] | – | – | – | % Plant Inhibition, Rice (herbicide alone) (Rice; H-2 (butachlor) 4.5 kg/ha alone): 90% and 75% and 60%
2 | CCc1cccc(CC)c1N(COC)C(=O)CCl [Compound H-1, 2-chloro-2',6'-diethyl-N-(methoxymethyl) acetanilide, reference compound] | – | – | – | % Plant Inhibition, Sorghum (herbicide alone) (Sorghum; [1]): 90% and 80% and 85%; % Plant Inhibition, Wheat (herbicide alone) (Wheat; [1]): 90% and 75% and 80%; % Plant Inhibition, Rice (herbicide alone) (Rice; H-1 (alachlor) 2.2 kg/ha alone): 90%
3 | N#CC1(Sc2nc(-c3ccccc3)cs2)CC1 [Compound 2, 1-[(4-phenyl-2-thiazolyl)thio]-1-cyclopropanecarbonitrile] | 45% | 90% | – | % Plant Inhibition, Rice (herbicide plus safener) (Rice; H-1 (alachlor) 2.2 kg/ha plus safener 9.0 kg/ha): 95%
4 | Cn1c(SC2(C#N)CC2)nnc1C(F)(F)F [Compound 1, 1([4-methyl-5-(trifluoromethyl)4H.1,2,4-triazol-3 yl]thio)-1-cyclopropanecarbonitrile] | 100% | 95% | 75% | –
5 | Cn1ccnc1SC1(C#N)CC1 [Compound 4, 1-[(1-methyl-1H--imidazol-2-yl)thio]-1-cyclopropanecarbonitrile] | 20% | 95% | 100% | –
6 | Cc1ccnc(SC2(C#N)CC2)n1 [Compound 3, 1-[(4-methyl-2-pyrimidinyl)thio]-1-cyclopropanecarbonitrile] | 95% | 40% | 90% | –

Reference: patent US4584376A, “1-heterocyclicthio-1-cyclopropanecarbonitriles as crop protectants” (Monsanto Company, priority 1982, dated 1986)
